Reference: the supplement of paper PMC10307832

Compound: CCOc1cc2ncc(C#N)c(Nc3ccc(OCc4ccccn4)c(Cl)c3)c2cc1NC(=O)/C=C/CN(C)C [Neratinib]
Assay: relative viability (nuclei count vs DMSO), 5 days (fraction); higher = more cells survive
Procedure, shortened: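 After an overnight hold at 37 °C, lung cancer cell lines in 1536-well plates were pinned with five library-drug doses (not always all listed), each √10 from the next, on vehicle-anchored plates. The cells stayed 5 days without fresh medium, then a one-step fix, permeabilisation and Hoechst stain preceded 4× imaging and MetaXpress nuclear counts. A plate passed only with control CV under 25% and at least one doubling. Viability is the median, over plates, of treated-well nuclei relative to vehicle-well nuclei.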

Cell Line | relative viability (0.01 µM) | relative viability (0.03162 µM) | relative viability (0.1 µM) | relative viability (0.3162 µM) | relative viability (1 µM)
201T | 1.01 | 0.996 | 0.929 | 1.02 | 0.934
A-427 | 1.19 | 1.1 | 1.01 | 0.949 | 0.986
ABC-1 | 1.06 | 1.06 | 0.898 | 0.777 | 0.364
BEN | – | 1.18 | 1.03 | 0.849 | 0.753
CAL-12T | 1.06 | 1.09 | 0.868 | 0.631 | 0.301
COR-L23 | 1.21 | 1.17 | 0.87 | 1.02 | 0.86
COR-L 105 | 0.904 | – | 0.687 | 0.329 | 0.297
Calu-6 | 1.06 | – | 0.992 | 0.955 | 0.835
ChaGo-K-1 | 0.995 | 1.12 | 0.896 | 0.865 | 0.971
EKVX | 1.04 | 0.976 | 0.812 | 0.43 | 0.25
EMC-BAC-2 | 1.32 | 1.01 | 0.977 | 0.935 | 0.722
EPLC-272H | 0.867 | 0.869 | 0.841 | 0.666 | 0.358
H3255 | 1.07 | 0.985 | 0.78 | 0.327 | 0.224
HARA | 1.02 | 1.05 | 0.668 | 0.663 | 0.644
HCC-15 | 1.04 | 1.15 | 0.932 | 0.878 | 0.886
HCC-44 | 1.06 | 1.01 | 1.01 | 0.943 | 1.06
HCC-78 | 1.07 | 1.03 | 0.892 | 0.87 | 0.475
HCC-366 | 1.05 | 1.1 | – | 1.01 | –
HCC-827 | 1.09 | 1.13 | 0.982 | 0.679 | 0.183
HOP-62 | 1.02 | 1.15 | 0.934 | 0.914 | 1.09
IA-LM | 1.03 | 1.04 | 0.943 | 0.881 | 0.562
LC-2-ad | 1.01 | 1.03 | 0.915 | 0.738 | 0.797
LCLC-97TM1 | 1.05 | 1.08 | 0.955 | 0.689 | 0.696
LCLC-103H | 0.996 | 0.997 | 0.897 | 1.07 | 0.989
LK-2 | 1.12 | 1.05 | 0.988 | 0.718 | 0.499
LOU-NH91 | 0.988 | 0.92 | 0.796 | 0.691 | 0.676

Cell Line | relative viability (0.01 µM) | relative viability (0.03162 µM) | relative viability (0.1 µM) | relative viability (0.3162 µM) | relative viability (1 µM)
LU99A | 0.948 | 1.04 | 0.908 | 0.891 | 0.646
LXF-289 | 1.03 | 1.07 | 0.948 | 1.05 | 1.01
NCI-H23 | 1.1 | 1.15 | 0.811 | 0.922 | 0.739
NCI-H322M | 0.956 | 0.926 | 0.784 | 0.491 | 0.288
NCI-H358 | 0.949 | 0.792 | 0.556 | 0.275 | 0.242
NCI-H441 | 1.32 | 1.15 | 0.89 | – | 0.529
NCI-H460 | – | 1.11 | 0.865 | 0.978 | 0.981
NCI-H520 | 1.11 | 1.07 | 0.937 | 0.922 | 0.649
NCI-H522 | 0.982 | – | 0.876 | 0.692 | 0.59
NCI-H596 | 1.01 | 1.03 | 0.984 | 1.09 | 0.817
NCI-H647 | 1.07 | 1 | 0.931 | – | 0.483
NCI-H650 | 1.02 | 1.04 | 1.12 | 0.662 | 0.877
NCI-H661 | 1.1 | 0.999 | 0.808 | 0.57 | 0.448
NCI-H727 | – | 0.878 | 0.639 | 0.884 | 0.624
NCI-H838 | 1 | 1.02 | 0.88 | 0.946 | 0.532
NCI-H1355 | 1.11 | 1.02 | 0.833 | 0.933 | 0.826
NCI-H1395 | 0.994 | 0.948 | 0.992 | 0.917 | 0.654
NCI-H1437 | 1.05 | 1.03 | 0.95 | 0.94 | 0.95
NCI-H1563 | 1.03 | 1.07 | 0.915 | 0.864 | 0.706
NCI-H1648 | 0.819 | 0.931 | 0.657 | 0.383 | 0.432
NCI-H1650 | 0.985 | 0.906 | 0.833 | 0.68 | 0.694
NCI-H1651 | 1.04 | 1.08 | 0.952 | 0.907 | 0.822
NCI-H1666 | 1 | 1.03 | 0.884 | 0.76 | 0.78
NCI-H1703 | 1.16 | 0.951 | 0.909 | 0.778 | 0.388
NCI-H1734 | 1.05 | 1.05 | 0.914 | 0.929 | 0.734
NCI-H1755 | – | 1.01 | 0.858 | 1.02 | 1.05

Cell Line | relative viability (0.01 µM) | relative viability (0.03162 µM) | relative viability (0.1 µM) | relative viability (0.3162 µM) | relative viability (1 µM)
NCI-H1792 | 1.33 | 1.19 | 0.808 | – | 0.813
NCI-H1793 | 1.11 | 1 | 0.682 | 0.749 | 0.527
NCI-H1915 | 1.07 | 1.03 | 0.972 | 0.916 | 1.05
NCI-H1944 | 1.18 | 0.977 | 0.865 | 0.767 | 0.569
NCI-H1975 | 1.07 | 1.1 | 0.905 | 0.58 | 0.244
NCI-H1993 | 1.03 | 0.837 | 0.719 | 0.685 | 0.731
NCI-H2009 | 1.01 | 1.05 | 0.989 | 0.927 | 0.96
NCI-H2023 | 0.997 | 0.824 | – | 0.881 | 0.707
NCI-H2085 | 0.977 | 1.01 | 0.871 | 0.891 | 0.814
NCI-H2087 | 1.15 | 0.894 | 0.829 | 0.883 | 0.644
NCI-H2126 | 1.03 | 0.998 | 0.904 | 0.907 | 0.553
NCI-H2170 | 0.995 | 0.994 | 0.62 | 0.26 | 0.24
NCI-H2228 | – | 1.21 | 0.973 | 0.858 | 0.223
NCI-H2342 | 0.949 | 1.01 | 0.765 | 0.582 | 0.66
NCI-H2347 | 1.07 | 1.08 | 0.904 | 1.08 | –
NCI-H2405 | 1.06 | 1.07 | 0.989 | 0.98 | 0.739
NCI-H3122 | – | 1.02 | 0.931 | 0.991 | 0.5
PC-3 [JPC-3] | 1.07 | 1.12 | 0.947 | 0.687 | 0.471
PC-14 | 1.1 | 1.13 | 0.964 | 0.732 | 0.211
RERF-LC-KJ | 1 | 0.998 | 0.86 | 0.806 | 0.556
SK-LU-1 | 1.1 | 1.2 | – | 0.979 | 0.46
SK-MES-1 | 1.06 | 1.09 | 0.91 | 0.463 | 0.298
SW 900 | – | 1.05 | 0.772 | 0.94 | 0.94
SW 1573 | 1.09 | 1.18 | 0.828 | 0.912 | 0.716
UMC-11 | 0.901 | 1.14 | 0.748 | 0.898 | 0.832
